Laboratory results from patent publication US20260183396A1, “CXCR3 OVEREXPRESSION IN CAR-NK CELLS PRIMES MIGRATION/HOMING INTO THE TUMOR MICROENVIRONMENT” (DANA-FARBER CANCER INSTITUTE, INC., priority 2022, published 2026).
Values belong to the compound of their own block, whether it stands above or below them.

Assays:
[1] = molecular target: T1, CXCR3 (Homo sapiens, UniProt P49682); assay: CXCR3 surface expression after hCXCL10, flow cytometry; type: cell-based; details: NK cells, NK92, Jurkat; 200 ng hCXCL10
T1 construct: endogenous in cells; host or cells: primary NK cells (cNK, CIML); NK92 and JURKAT CXCR3+ lines; also CAR and CAR-CXCR3 transduced NK cells
T1 sequence (P49682 1-368): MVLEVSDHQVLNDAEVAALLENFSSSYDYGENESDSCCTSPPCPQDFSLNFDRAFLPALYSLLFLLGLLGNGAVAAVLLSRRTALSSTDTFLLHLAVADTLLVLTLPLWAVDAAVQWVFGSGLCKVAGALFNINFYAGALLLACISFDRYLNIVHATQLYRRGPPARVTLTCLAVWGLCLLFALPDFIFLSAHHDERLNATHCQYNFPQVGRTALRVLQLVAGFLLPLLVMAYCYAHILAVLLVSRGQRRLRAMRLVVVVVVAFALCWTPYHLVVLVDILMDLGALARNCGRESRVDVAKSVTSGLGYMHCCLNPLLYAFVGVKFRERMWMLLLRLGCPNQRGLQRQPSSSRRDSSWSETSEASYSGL
Protocol: CXCR3 is degraded from the cell surface of primary NK cells and the NK cell lines NK92 and […] both expressing CXCR3, after stimulation with 200 ng of recombinant human C—X—C Motif Chemokine Ligand 10 (hCXCL10) at different time points, as illustrated in FIG. 17A-FIG. 18B, measured by flow cytometry and expressed as median fluorescent intensity (MFI) of the CXCR3 receptor. CXCR3 is also degraded from CAR and CAR-CXCR expressing cNK cells. FIG. 18C-FIG. 18D illustrate CXCR3 surface expression as measured by flow cytometry of primary NK cells (cNK) expressing CAR, CAR-CXCR3 or control, stimulated with 200 ng of recombinant human CXCL10 stimulation at different time points (0 and 60 minutes). CXCR3 is degraded from cNK NT, CAR-cNK, and CAR-NK CXCR+ cell surfaces after 1 hour of hCXCL10 treatment (FIG. 19C). CXCR3 is also degraded from cytokine-induced memory-like (CIML) NK NT, CIML CAR-NK, CIML CAR-NK CXCR+ after 1 hour of hCXCL10 treatment (FIG. 19D).

[2] = tested on: STING; assay: STING immunoblotting in NK cells and TILs; type: cell-based, human; details: NK cells
Protocol: Immunoblotting. […] Imaging of blots and was performed using the LI-COR Odyssey system.

[3] = tested on: MPM tumor cell lines; assay: 3D vascular model of NK cell migration; type: cell-based, human
Protocol: 3D vascular model. To generate the tumor-vascular model, H226 spheroids were mixed with collagen rat tail hydrogel (2.5 mg/ml) and injected into the center gel region of the 3D microfluidic chamber (10-15 μL per each microfluidic chamber). After incubation for 30 minutes at 37° C. in sterile humidity chambers, the side wall of one flanked channel (media channel) was coated with a 150 μg/ml collagen solution in PBS to allow for better adhesion of eCs to the channel. After 15 mins, the channel was washed once with media. To create the 3D vessel, 25 μL cell suspension of 3×10^6 cells/ml human umbilical vein endothelial cells (HUVECs; C2519AS, Lonza) were injected in the media channel coated with collagen. The channel was rotated twice to create a confluent hollow-lumen 3D vessel. To allow the cells to attach to the media-gel interface and form a monolayer, the chip was incubated with cells face down for 15 mins. Next, 50 μL cell suspension was reinjected, and the chip was flipped to cover the upper part of the 3D vascular channel. After 90 mins of incubation in the humidity chamber at 37° C., cell culture media was gently added to both channels and further incubated to form a confluent monolayer. After vessel formation, NK cells (labelled with cell tracker) were added to the 3D vessel at 2:1 E:T ratio. […] NK cell migration+/−vessel was quantified at 24 hours. Image capture and analysis was performed using a fluorescence confocal microscope and processing software. The 3D vascular channels were rinsed in PBS and fixed with 4% PFA for 15 min at room temperature. Cell membranes were permeabilized with 0.1% Triton X-100 for 5 min at room temperature and washed twice with PBS. HUVEC cells were stained for F-actin with green phalloidin (Thermo Fisher Scientific A12379) and Hoechst 33342. Images were captured on a Nikon Eclipse 80i fluorescence microscope equipped with Z-stack (Prior) and CoolSNAP CCD camera (Roper Scientific).

[4] = tested on: NK cells; assay: Immune cell toxicity assays, NK cells; type: cell-based; details: 72 hours of high dose exposure; regardless of IL-2 or co-culture with TILs
Protocol: Immune Cell Toxicity Assays. […] Following treatment, samples were stained with anti-CD45, anti-CD3, anti-CD4, anti-CD8, and anti-CD56 antibodies (Table 1), as well as Zombie Green live/dead (Biolegend 423111) and analyzed by flow cytometry as described above. Data were analyzed using FlowJo software version 10.5.3. As an orthogonal measure of viability, CellTiter-Glo was performed on primary T-cells and NK cells.
CellTiter-Glo luminescent cell viability assay. Cell viability was assessed using the CellTiter-Glo Luminescent Cell Viability assay (Promega, G7571) according to manufacturer's instructions. […] All conditions were tested in triplicate and plates were read on a Tecan Infinite Mplex Microplate Reader.

[5] = tested on: NK cells; details: systemic administration, murine models; related manuscript; cited from earlier work

CXCR3 cell surface expression [1]: lost from the cell surface
Compound: hCXCL10: recombinant human C—X—C Motif Chemokine Ligand 10

Compound: CCN(CC)CCCC(C)Nc1ccnc2cc(Cl)ccc12 (stereo not drawn) [chloroquine]
effect on ADU-S100 induced STING degradation [2]: prevented

Compound: Nc1ncnc2c1ncn2[C@@H]1O[C@@H]2CO[P@@](=O)(S)O[C@@H]3[C@H](O)[C@@H](CO[P@@](=O)(S)O[C@H]2[C@H]1F)O[C@H]3n1cc(F)c2c(=O)nc[nH]c21 [TAK-676]
overcoming a human vascular barrier ([3]; ex vivo model): especially potent | NK cell migration ([3]; presence and absence of the vascular barrier): enhanced NK cell migration | cytotoxicity in human NK cells [4]: no significant cytotoxicity | trafficking and activation of NK cells [5]: enhanced
